From US10738041B2, “Ferroportin inhibitors” (Vifor (International) AG, priority 2015, dated 2020)

Key:
[1] = target: T1, human Fpn (Homo sapiens, UniProt Q9NP59); assay: Biophysical Ferroportin-Hepcidin Binding Assay (fluorescence polarization); settings: average of multiple measurements; 1 μM human Fpn, 20 nM TMR-hepcidin; read-out: FP IC50
T1 construct: FLAG (C); made in house; host or cells: Pichia pastoris
T1 sequence (Q9NP59 1-571): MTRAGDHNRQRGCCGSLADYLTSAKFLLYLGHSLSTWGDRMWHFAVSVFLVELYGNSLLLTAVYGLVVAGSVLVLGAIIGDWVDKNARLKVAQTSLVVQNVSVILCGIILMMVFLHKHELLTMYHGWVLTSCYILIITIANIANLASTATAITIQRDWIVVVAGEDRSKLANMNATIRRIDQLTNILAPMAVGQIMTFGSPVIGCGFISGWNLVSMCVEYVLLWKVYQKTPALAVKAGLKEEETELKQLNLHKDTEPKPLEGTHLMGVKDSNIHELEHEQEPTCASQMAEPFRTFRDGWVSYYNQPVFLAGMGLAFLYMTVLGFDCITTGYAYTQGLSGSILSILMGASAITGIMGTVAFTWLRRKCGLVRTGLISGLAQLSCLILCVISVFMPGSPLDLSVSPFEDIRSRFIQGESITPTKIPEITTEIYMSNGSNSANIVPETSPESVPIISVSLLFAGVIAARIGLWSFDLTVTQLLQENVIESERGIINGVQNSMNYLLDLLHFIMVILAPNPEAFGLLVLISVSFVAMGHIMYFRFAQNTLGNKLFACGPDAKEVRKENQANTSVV
Summary of the method: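 Purified human Fpn (C-terminal FLAG tag, expressed in Pichia pastoris) at 1 μM final was incubated with 20 nM TMR-hepcidin and serially diluted compounds in duplicate for 90 min at room temperature. Binding inhibition was read as a dose-dependent fall in FP (mP), calculated from parallel and perpendicular fluorescence.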

[2] = target: T2, human Fpn-GFP fusion (Homo sapiens, UniProt Q9NP59); assay: Inhibition of ferroportin mediated iron export activity in an iron response assay (BLAzer); type: cell-based; settings: average of multiple measurements; HEK-293 cell line #354; read-out: BLAzer EC50
T2 construct: expressed in transfected cells; host or cells: HEK-293 cell line #354 (derivative of HEK-293 Tet-ON Advanced, Clontech)
T2 sequence (Q9NP59 1-571): T1 sequence (Q9NP59 1-571)
Description: Intracellular iron levels are indirectly measured in this assay by monitoring the activity of a beta-lactamase (BLA) reporter gene fused to the human ferritin promoter and the associated iron regulatory element (IRE) contained within the 5′ untranslated region of the ferritin mRNA. Expression of ferroportin (Fpn) in such a cell line leads to iron efflux and lower iron levels as reflected by lower activity of the reporter gene. On the other hand, inhibition of Fpn-mediated iron efflux results in elevated cellular iron levels which is detected as increased reporter gene activity. Small molecular weight Fpn inhibitor compounds were tested for dose-dependent effects in this in vitro iron response assay as described below.
The HEK-293 cell line #354 was generated by stable integration of (i) a human Fpn-GFP fusion construct inserted in a derivative of the doxycycline-inducible pTRE-Tight-BI plasmid (Clontech, Cat. 631068) and (ii) a human ferritin promoter-BLA reporter gene into a derivative of the HEK-293 Tet-ON Advanced cell line (Clontech). […] After overnight incubation, 10 μl/well of dilution series of the test compounds were added in quadruplicates and plates were further incubated overnight at 37° C. with 5% CQ. Cells were washed 3 times with HBSS leaving 25 μl per well. BLA activity was detected by adding 5 μl/well of the GeneBlazer reagent CCF4-AM (Invitrogen, Cat. K1085) to the cells. After incubation of the plates in the dark at 18° C. for 60 min., blue and green fluorescence signals were measured in a Safre2 fluorescence plate reader (Tecan) with excitation at 410 nm and emissions at 458 nm (blue) and 522 nm (green). The ratio of blue/green fluorescence as a measure for BLA activity was calculated and EC50 values were determined with the calculated blue/green fluorescence ratios as described for the hepcidin internalization assay.

[3] = target: T2, human Fpn-GFP fusion; assay: Ferroportin Internalization and Degradation Assay (FACS); type: cell-based; settings: average of multiple measurements, Fpn-GFP MFI, HEK-293 cell line #354, FACS; for DC50: read-out: EC50 ferroportin internalization and degradation
Procedure: Growing HEK-293 #354 cells in doxycycline containing media induced expression of human Fpn-GFP fusion protein on the cell surface. […] Small molecular weight Fpn inhibitor compounds were tested for dose-dependent effects on the Fpn-GFP mean fluorescence intensity (MFI) on HEK-293 cell line #354, as described below. HEK #354 cells were harvested from ca. 80% confluent cultures, seeded at 0.6×10^6 (cells/ml in DMEM/F12 GlutaMAX™ medium (Invitrogen, Cat. 31331-028) containing 10% FBS (Clontech, Cat. 631106), 1% Penicillin-Streptomycin (Invitrogen, Cat. 15140-122), 200 μg/ml Hygromycin B (Invitrogen, Cat. 10687-010), Blasticidin 5 μg/ml, (Invitrogen, Cat. R210-01), 4 μg/ml doxycycline (Clontech, Cat. 631311), 50 μl per well of 384 well plates (Greiner; Cat. 781091) and grown at 37° C. with 5% CQ. After overnight incubation, 10 μl/well of dilution series of the test compounds were added in quadruplicates and plates were further incubated overnight at 37° C. with 5% CO2. Cells were washed once with FACS buffer (PBS containing 1% FBS, 2 mM EDTA and 0.05% NaN3), harvested in FACS buffer with 0.5 μg/ml propidium iodide (Sigma, Cat. P4864) and analyzed in a flow cytometer (CANTO™ II, BD Biosciences) equipped with high throughput sampler. Live HEK #354 cells were gated as propidium iodide negative population and analyzed for expression of Fpn-GFP.

SMILES | IC50 [1] | EC50 [2] | EC50 [3] | DC50 [3]
O=C(NCc1ccccn1)c1csc(CCNCc2nc3ccccc3[nH]2)n1 [Example 12] | 860 nM | 8270 nM | – | –
O=C(NC1CCc2cccnc21)c1csc(CCNCc2nc3ccccc3[nH]2)n1 (centres unmarked) [Example 39] | 1340 nM | 2900 nM | – | –
O=C(NCc1ncccc1Cl)c1csc(CCNCc2nc3ccccc3[nH]2)n1 [Example 82] | 374 nM | 760 nM | 689 nM | –
Cc1cnccc1CNC(=O)c1csc(CCNCc2nc3ccccc3[nH]2)n1 [Example 90] | 418 nM | 4030 nM | – | –
O=C(NCc1ncccc1F)c1csc(CCNCCc2nc3ccccc3[nH]2)n1 [Example 94] | 44 nM | 530 nM | 220 nM | –
O=C(NCc1ncccc1F)c1cnn(CCNCCc2nc3ccccc3[nH]2)c1 [Example 111] | 51 nM | 620 nM | 75 nM | –
O=C(NCc1ncc(F)cc1F)c1csc(CCNCCc2nc3ccccc3[nH]2)n1 [Example 116] | 58 nM | 2790 nM | 590 nM | –
O=C(NCc1ncccc1F)c1csc(CNCCc2nc3ccccc3[nH]2)n1 [Example 118] | 250 nM | 2690 nM | 4910 nM | –
O=C(NCc1ncccc1F)c1csc(CCNCCc2nc3cc(F)ccc3[nH]2)n1 [Example 120] | 71 nM | 1600 nM | 530 nM | –
O=C(NCc1cccnn1)c1csc(CCNCCc2nc3ccccc3[nH]2)n1 [Example 122] | 214 nM | 4330 nM | 3020 nM | –
O=C(NCc1ncccc1F)c1coc(CCNCc2nc3ccccc3[nH]2)n1 [Example 126] | 120 nM | 1260 nM | 757 nM | –
O=C(NCc1ncccc1F)c1coc(CCNCCc2nc3ccccc3[nH]2)n1 [Example 127] | 23 nM | 420 nM | 81 nM | –
O=C(NCc1ncccc1F)c1csc(CCCNCc2nc3ccccc3[nH]2)n1 [Example 134] | 970 nM | 4090 nM | 5190 nM | –
O=C(NCc1ccccn1)c1coc(CCNCc2nc3ccccc3[nH]2)n1 [Example 137] | 1040 nM | 5750 nM | 11100 nM | –
O=C(NCc1ncccc1Cl)c1cnn(CCNCc2nc3ccccc3[nH]2)c1 [Example 138] | 160 nM | 1720 nM | 678 nM | –
O=C(NCc1ncccc1Cl)c1coc(CCNCc2nc3ccccc3[nH]2)n1 [Example 141] | 49 nM | 1110 nM | 290 nM | –
O=C(NCc1ncccc1Cl)c1cnn(CCNCCc2nc3ccccc3[nH]2)c1 [Example 144] | 73 nM | 470 nM | 43 nM | –
O=C(NCc1ncccc1F)c1nc(CCNCc2nc3ccccc3[nH]2)sc1Cl [Example 151] | 89 nM | 720 nM | 523 nM | –

SMILES | IC50 [1] | EC50 [2] | EC50 [3] | DC50 [3]
O=C(NCc1ncccc1F)c1csc(CCN(CCc2nc3ccccc3[nH]2)CCc2nc3ccccc3[nH]2)n1 [Example 152] | 23 nM | 170 nM | 71 nM | –
O=C(NCc1ncccc1F)c1nc(CCNCCc2nc3ccccc3[nH]2)sc1Cl [Example 154] | 30 nM | 740 nM | 130 nM | –
O=C(NC1CCc2cccnc21)c1csc(CCNCCc2nc3ccccc3[nH]2)n1 (centres unmarked) [Example 158] | 41 nM | 620 nM | 325 nM | –
O=C(NCc1cccnn1)c1nc(CCNCc2nc3ccccc3[nH]2)sc1Cl [Example 161] | 260 nM | 17200 nM | 5300 nM | –
O=C(NCc1ncccc1F)c1ncn(CCNCc2nc3ccccc3[nH]2)n1 [Example 169] | 540 nM | 8230 nM | 4120 nM | –
O=C(NCc1ncccc1F)c1ncn(CCNCCc2nc3ccccc3[nH]2)n1 [Example 181] | 89 nM | 3720 nM | 930 nM | –
O=C(NCc1ncccc1F)c1csc(CCNCC(F)(F)c2nc3ccccc3[nH]2)n1 [Example 196] | 870 nM | 12700 nM | – | 24800 nM
O=C(NCc1ncccc1F)c1coc(C2CN(CCc3nc4ccccc4[nH]3)C2)n1 [Example 208] | 19 nM | 500 nM | 150 nM | –
O=C(NCc1ncccc1F)c1cccc(CNCCc2nc3ccccc3[nH]2)c1 [Example 224] | 201 nM | 8200 nM | – | 1830 nM
O=C(NCc1ncccc1F)c1coc(CCNCCc2nc3c(Cl)cccc3[nH]2)n1 [Example 226] | 26 nM | 2340 nM | 490 nM | –
O=C(NCc1ncccc1F)c1coc(CCNCCc2nc3c(F)cccc3[nH]2)n1 [Example 228] | 21 nM | 2120 nM | 460 nM | –
Cc1oc(CCNCCc2nc3ccccc3[nH]2)nc1C(=O)NCc1ncccc1F [Example 230] | 58 nM | 6380 nM | 950 nM | –
O=C(NCc1ncccc1F)c1coc(C2CN(CCc3nc4c(F)cccc4[nH]3)C2)n1 [Example 239] | 38 nM | 880 nM | 320 nM | –
O=C(NCc1ncccc1F)c1csc(CCNCCc2nc3c(F)cccc3[nH]2)n1 [Example 243] | 34 nM | 1400 nM | 510 nM | –
O=C(NCc1ncccc1F)c1coc(CCNCCc2nc3c(F)cc(F)cc3[nH]2)n1 [Example 249] | 44 nM | 1550 nM | 950 nM | –
O=C(NCc1ncccc1F)c1coc(CCNCCc2nc3cc(F)ccc3[nH]2)n1 [Example 250] | 19 nM | 460 nM | 600 nM | –
O=C(NCc1ncccc1F)c1cncc(C2CN(CCc3nc4ccccc4[nH]3)C2)c1 [compound 237] | 66 nM | 2460 nM | – | –
